Results on two compounds are retold here after patent US11236303B2, “CD34+CD41DIM megakaryocytes progenitors and uses thereof for producing proplatelet-bearing MKs and/or platelets” (INSTITUT NATIONAL DE LA SANTE ET DE LA RECHERCHE MEDICALE …, priority 2015, dated 2022).

Common to all, as to format: cell-based, human
In data set [1] the test system is peripheral blood CD34+ cells. Nature of the data set: CD34/CD41 expression by flow cytometry in MK differentiation culture. The protocol:
(§1) CD34^+ cells were seeded in 48-well plates at a density of 4×10^4 per mL in StemSpan SFEM medium supplemented with 20 ng/mL human LDL and CC220 (1×), a cocktail of cytokines containing SCF, TPO, IL-6 and IL-9 (all from Stemcell Technologies), with or without addition of 1 μM SR1 (Cellagen Technology, San Diego, Calif.) (FIG. 1A). On day 7, the cells were harvested, washed and seeded at 5×10^4/mL in StemSpan SFEM medium containing 30 ng/mL TPO with or without 1 μM SR1 for an additional 7 days. The cultures were incubated at 37° C. under normoxic conditions and 5% CO2. On days 7 and 10 of culture, the cells were counted, their viability was measured by propidium iodide exclusion in an automatic cell counter (ADAM, Digital-Bio, Korea) and the expression of CD34, CD41 and CD42b was analyzed in a Gallios flow cytometer using Kaluza software (Beckman Coulter, Villepinte, France). In some experiments, SR1 was replaced by the AhR agonist FICZ (Enzo life sciences, Villeurbane, France) added at 0.2 μM.
In a second protocol, CD34^+ cells were cultured in the presence of mesenchymal stromal cells (MSCs) isolated from human bone marrow (Guilloton F et al., Blood. 2012; 119:2556-2567). MSCs were maintained in α-MEM medium supplemented with 10% fetal bovine serum (Invitrogen, Cergy Pontoise, France) and 2 ng/mL recombinant human (rh) FGF2 (Peprotech, Rocky Hill, N.J.). CD34^+ cells were added to a confluent layer of MSCs at a density of 4×10^4/mL in 48-well plates in StemSpan SFEM medium supplemented with 20 ng/mL human LDL and CC220. On day 7, the cells in suspension were harvested, washed and co-cultured at 5×10^4/mL on a new layer of confluent MSCs in StemSpan SFEM medium containing 30 ng/mL TPO for an additional 7 days (FIG. 5A).
Surface Markers. Cells were analyzed by flow cytometry (Gallios, Beckman Coulter, France) after labeling with anti-CD34-PE-Cy7 (Beckman Coulter, Fullerton, Calif.), anti-CD41-Alexa-488 (ALMA.17), anti-CD42c-PE (RAM.1) and anti-CD42d-Alexa-647 (V.1) mAbs for 30 min at 4° C. The cells were then washed and resuspended in PBS containing 7-AAD (1/50). The acquired data were analyzed with Kaluza software.
(A flow cytometer gives signals particle by particle.)

Data set [2] deals with peripheral blood CD34+ cells. Nature of the data set: Quantification of proplatelet-bearing MKs in two-step culture of CD34+ cells. The protocol:
as §1
(§2) The percentage of MKs extending proplatelets was determined in the culture wells by phase-contrast microscopy. In each culture, at least 100 MKs were analyzed and images were acquired using a Zeiss Axio Vert.A1 microscope with a 20× objective (Marly-le-Roi, France).

Data set [3] concerns peripheral blood CD34+ cells. Nature of the data set: Determination of the number of platelets produced per seeded cell, two-step culture of CD34+ cells. As for the experimental part: as §1
In a second protocol, CD34^+ cells were cultured in the presence of mesenchymal stromal cells (MSCs) isolated from human bone marrow (Guilloton F et al., Blood. 2012; 119:2556-2567). MSCs were maintained in α-MEM medium supplemented with 10% fetal bovine serum (Invitrogen, Cergy Pontoise, France) and 2 ng/mL recombinant human (rh) FGF2 (Peprotech, Rocky Hill, N.J.). CD34^+ cells were added to a confluent layer of MSCs at a density of 4×10^4/mL in 48-well plates in StemSpan SFEM medium supplemented with 20 ng/mL human LDL and CC220. […]
CD34^+ cells cultured for 7 days in the presence of CC220 (FIGS. 1A and 5A) or CD34/CD41 sorted cells (FIGS. 4A and 6A) were seeded in a medium containing TPO. […] CD41/CD42c double positive events, having the same scattering properties as washed blood platelets, were counted as platelet-like particles and the number of particles per seeded cell, at day 7 or 10 following experiments, was determined.

The test system of another data set is CYP1B1. Nature of the data set: CYP1B1 mRNA expression by qPCR (downstream target of AhR). As for the experimental part: CD41/61 cells were obtained on day 7 or 10 of culture using the antibody ALMA.17 and magnetic beads (EasySep® “Do-It-Yourself” Selection Kit, StemCell Technologies). Total RNA were extracted using an RNeasy® Mini kit (QIAGEN) following manufacturer's instructions. Quantity and quality of total RNA for all samples were evaluated by measuring OD at 260 nm and concentration was adjusted at 50 ng/ml. The RNA samples were stored at −80° C. until use. qRT-PCR was applied under standard conditions using the SYBR Green Master Mix kit on the ABI Prism 7900 Sequence Detection System (PerkinElmer-Cetus, Courtaboeuf, France). The primers for genes were chosen with the assistance of the Oligo 6.0 program (National Biosciences, Plymouth, Minn.) and have been previously described (Bieche I. et al., Pharmacogenetics and genomics. 2007; 17:731-742).
(Quantitative PCR measures a nucleic acid by following its amplification.)

Data set [4] has as its system peripheral blood CD34+ cells. Nature of the data set: Two-step MK differentiation culture: level of proliferation (viable cell count). The protocol:
as §1

The subject of data set [5] is CD34+CD41dim cells. Nature of the data set: Quantification of proplatelet-bearing MKs from sorted CD34+CD41dim cells. As for the experimental part: (§3) The cells recovered on day 10 were incubated with a mixture of Alexa-488-conjugated anti-CD41 (ALMA.17) and PE-Cy7-conjugated anti-CD34 mAbs (BD Biosciences) for 30 min at 4° C. They were then washed in PBS-EDTA and incubated for 30 min in PBS containing 7-AAD (1/50) to select viable cells. The morphologic and sorting gates were determined by FMO (fluorescence minus one) analysis and megakaryocytic precursors were sorted at 500 cells/s according to their CD34/CD41 expression using a FACS Aria II flow cytometer (Becton Dickinson, Mountain View, Calif.) equipped with a 50 μm nozzle and two argon lasers operating at 500 mW and tuned to 488 and 360 nm, respectively (Coherent Radiation, Palo Alto, Calif.). The sorted CD34^+CD41^dim and CD34 CD41^+ cells were then counted and seeded at 4×10^4/mL in 48-well plates in StemSpan medium containing TPO with or without SR1 for 7 days (FIG. 4A).
as §2

Data set [6] concerns CD34+CD41dim cells. Nature of the data set: Number of platelet-like elements produced per seeded sorted CD34+CD41dim cell. The protocol:
as §3, with “4A). CD34^+ cells cultured for 7 days in the presence of CC220 (FIGS. 1A and 5A) or CD34/CD41 sorted cells (FIGS. 4A and 6A) were seeded in a medium containing TPO. […] CD41/CD42c double positive events, having the same scattering properties as washed blood platelets, were counted as platelet-like particles and the number of particles per seeded cell, at day 7 or 10 following experiments, was determined.” for “4A).”

[7] abbreviates: SR1-derived CD34+CD41dim cells sorted day 10, 7 days in TPO + SR1 (5 μM).

“And” between values parts separate entries of the source, which are not always exact repeats. Equal values may be shown once.

Consider `O=Cc1c2[nH]c3ccccc3c2cc2[nH]c3ccccc3c12` [FICZ], for which the “proportion of CD34+CD41dim cells” value in data set [1] (MSC co-culture with addition of FICZ, data not shown) is on record as “reduced”. Moreover, in data set [2] (SR1 replaced by FICZ (0.2 μM)), the “proplatelet extension of MKs” value is reported as “dramatic decrease”. In data set [3] (day 14, SR1 replaced by 0.2 μM FICZ), the “number of platelet-like elements per cell seeded on day 7” value was found to be 0.20±0.04 platelets/seeded cell. Also, the “effect on the MSC-induced decrease in CYP1B1 transcripts” value with CYP1B1 (MSC co-culture with addition of FICZ, day 10) is listed as “reversed”.

Turning to `CC(C)n1cnc2c(NCCc3ccc(O)cc3)nc(-c3csc4ccccc34)nc21` [SR1, 4-(2-(2-(benzo[b]thiophen-3-yl)-9-isopropyl-9H-purin-6-ylamino)ethyl)phenol], the “fold expansion of the total nucleated cells” value in data set [4] (day 7, over input of CD34+ cells on day 0, with SR1, mean±SEM, n=8) came to 4.2±1.2 fold. Besides, in data set [4] (day 7 to day 10, SR1-treated cultures), the “increase in number of cells from day 7 to day 10” value worked out at 2.5 times. Further, the “decrease in CD34 positivity” value in data set [1] (day 7, expansion step with CC220, SR1-treated) is reported as 8.3%. Further, in data set [1] (day 7, presence of SR1), the “CD34+CD41+ cells, % of total population” value was 68.9±1.8% and 69%; the “CD34+CD41- cells, % of total population” value is given as 22.4±1.5%; the “CD34-CD41+ cells, % of total population” value came out at 3.6±0.3%. Also, the “CD34+CD41+ cells, % of the cells” value in data set [1] (day 10, SR1-treated cultures) was 55.1±4.9% and 55%. In data set [1] (day 10, SR1 treatment, mean±SEM in 8 experiments), the “CD34+CD41dim cells (region R2), % of total cells” value stood at 36.8±1.9%. Besides, the “proportion of CD34+ cells” value in data set [1] (day 10, after passage in TPO alone, SR1 treatment) was 71.6%. The “CD34-CD41+ cells, % of the cells” value in data set [1] (day 10, presence of SR1) is recorded as 26.7±4.5%. Moreover, in data set [2] (day 14, 1 μM SR1, CC220 day 0-7 then TPO day 7-14), the “percentage of MKs extending proplatelets” value amounted to 34.6±2.1%. The “number of platelet-like elements per cell seeded on day 7” value in data set [3] (day 14, 1 μM SR1) is listed as 20.72±5.19 platelets/seeded cell. Further, the “increase in number of platelet particles after addition of SR1 versus control” value in data set [3] (day 14, per cell seeded on day 7) was “about 3 fold”. The same compound displayed a CYP1B1 expression with CYP1B1 (day 7 culture, SR1 treated cells, control 579.8±40.8, n=3) of 2.5±0.8 arbitrary units. For the same compound, in the data set on CD34+CD41dim cells [5] (MSC-derived CD34+CD41dim cells sorted day 10, 7 days in TPO + 5 μM SR1, n=4), the “percentage of MKs extending proplatelets” value is given as 49.5±10.5%. The “percentage of MKs extending proplatelets” value with CD34+CD41dim cells [5] (setting [7]) was 91.0±2.4%. Moreover, the “proportion of the MKs produced that are proplatelet-bearing MKs” value with CD34+CD41dim cells [5] (from seeded CD34+CD41dim cells, summary statement) is recorded as “About 90%”. The “number of platelet-like elements per seeded cell” value in the data set on CD34+CD41dim cells [6] (setting [7]) was 52.1±8.8 platelets/seeded cell and 52.06±8.79 platelets/seeded cell. Also, in the data set on CD34+CD41dim cells [6] (sorted CD34+CD41dim cells, 7 days in TPO), the “enhanced production of platelet-like elements with SR1 as compared to without SR1” value came to 6.8 fold.
